Source: patent publication US20210348107A1, “DEVICE AND SYSTEMS COMPRISING ELECTRODE ARRAYS FOR ELECTROCONDUCTIVE CELLS” (UNIVERSITY OF WASHINGTON, priority 2018, published 2021)

Experiments:
[1] = system: neurons; details: following spinal cord, head injury, and cerebral ischemia; by blocking excitotoxicity; cited from earlier work
[2] = system: human cells; details: cited from earlier work
[3] = system: nerve terminal; details: cited from earlier work
[4] = system: CMT2 neurons; assay: Acetylated α-tubulin levels in CMT2 neurons after HDAC6 inhibitor treatment; assay type: cell-based, human; details: data not shown
Description: Treatment with this compound was also found to improve both the absolute velocity and the total number of moving axonal mitochondria. Decreased acetylated α-tubulin abundance is a characteristic feature of CMT2, and has been directly linked to severe axonal transport deficits in mouse models of the disease. […] The NMJ platform constitutes the ideal model for performing assessment of whether the reported changes result in restoration of WT NMJ phenotypes. Furthermore, the establishment of methods for screening compound action using this platform is translatable to other drug candidates and models of other neuropathic disease states.

[5] = system: CMT2 neurons; assay: Live cell imaging of mitochondrial transport along axons of CMT2 iPSC motor neurons; assay type: cell-based, human
Description: Mitochondrial transport along axons is evaluated using live cell imaging of cultured neurons. Cells are infected with a lentiviral vector expressing mitochondrially targeted fluorescent probe dsRed (mito-dsRed) permitting real-time assessment of mitochondrial movement. Cells are placed within an environmental chamber mounted on an epifluorescent microscope and mitochondrial movement is recorded for 10 minutes with 3-second time-lapse intervals. Image analysis is performed with ImageJ, and Matlab code can be used, for example, to calculate mitochondrial velocity by measuring the distance between the position of individual mitochondria at the start and end of time-lapse recordings and dividing by the time elapsed. This provides a measure of overall transport velocity that includes anterograde and retrograde movements and stationary periods. Mitochondria are then classified as motile (velocity >0.1 μm s-1) or stationary (velocity ≤0.1 μm s-1), in line with disclosed methods (see e.g., Saporta et al. Experimental neurology. 2015; 263:190-9). Immunostaining is used to quantify mitochondrial density within the developing growth cone of cultured neurons as a means to evaluate the effect of altered transport on presynaptic development. To account for time dependent maturation, neurons are evaluated for all end-points following 1, 2, 3, and 4 weeks in culture. […]

[6] = system: ALS patients; details: cited from earlier work

**Q.** Which protection of neurons [1] does the source give for `Cc1cccc(C)c1OCC(C)N` (centres unmarked) [Mexiletine] here?
**A.** Its protection of neurons is “protective of neurons”.

**Q.** For `O=C(NCCO[N+](=O)[O-])c1cccnc1` [Nicorandil], which “mitochondrial production of reactive oxygen species (ROS)” value [2] is on record?
**A.** Its value is “limit mitochondrial production of reactive oxygen species”.

**Q.** Which results are given for `Nc1ccncc1N` [3,4-diaminopyridine]?
**A.** acetylcholine release from the nerve terminal [3]: enhances; conduction in unmyelinated nerves [3]: improves

**Q.** With `CN1CCc2c(c3ccccc3n2Cc2ccc(C(=O)NO)cc2)C1` [Tubastatin A] as the compound, how does the “levels of acetylated α-tubulin” value [4] read?
**A.** Its value is “significantly improved”.

**Q.** And the “absolute velocity of moving axonal mitochondria” value [5]?
**A.** Its value is “improve”.

**Q.** What about the “total number of moving axonal mitochondria” value [5] of the same compound?
**A.** The value was “improve”.

**Q.** Which prolongation of life [6] does the source give for `Nc1nc2ccc(OC(F)(F)F)cc2s1` [Riluzole] here?
**A.** The prolongation of life was “prolonging life by a few months”.
